According to patent US20100324067A1, “TETRACYCLIC DIPYRANO-COUMARIN COMPOUNDS WITH ANTI-HIV AND ANTI-MYCOBACTERIUM TUBERCULOSIS ACTIVITIES” (priority 2007, published 2010):
≈ marks a conversion by molar mass, not a printed value. Like-named read-outs stand apart in the source and are kept apart here.

Key:
[1] = tested on: Mycobacterium tuberculosis H37Rv (ATCC 27294); assay: Microplate Alamar Blue Assay (MABA) in BACTEC 12B medium (TAACF screen); format: cell-based; details: for IC50: read-out: IC50
[2] = read-out: anti-TB active compound (MIC90 less than 10 μg/mL), classification

Row | Compound | IC50 ([1]; MABA, H37Rv) [µg/mL] | MIC90 ([1]; MABA, H37Rv, read-out: MIC90) [µg/mL] | melting point | further results
1 | O=c1oc2cc(O)cc(O)c2c2c1CCC2 [Example 6-26, 3,4-cyclopentyl-5,7-dihydroxy-coumarin] | 9.97 (≈ 45.7 µM) | 24.4 (≈ 112 µM) |  | 
2 | CCCc1cc(=O)oc2c3c(c4c(c12)OC(C)(C)C=C4)OC(CNC(=O)Nc1ccc(F)cc1)CC3=O (stereo not shown) [Example 60, 6,6-dimethyl-4-n-propyl-10-(p-fluorophenylureido)methylene-2H,6H,12H-benzo[1,2-b:3,4-b′:5,6-b″]-tripyranyl-2,12-dione] | 32.5 (≈ 64.3 µM) | > 100 | 119 to 120.5 °C | 
3 | CCCc1cc(=S)oc2c3c(cc(OS(=O)(=O)c4ccc(C)cc4)c12)OC(C)CC3=O (stereo not shown) [Example 5a-102, 5-(p-tolyl)sulfonyloxy-8-methyl-4-n-propyl-2-thio-2H-benzo[2,3-f]dipyranyl-2,10-dione] | 5.48 (≈ 12 µM) | 6.24 (≈ 13.6 µM) |  | MIC90 [1, 2]: < 10 µg/mL
4 | CCCc1cc(=O)oc2c3c(c4c(c12)OC(c1ccccc1N)C=C4)OC(C)CC3=O (stereo not shown) [Example 99] | 7.49 (≈ 17.9 µM) | 15.5 (≈ 37.1 µM) | 175 to 177 °C | 
5 | NCC[C@H](O)C(=O)N[C@@H]1C[C@H](N)[C@@H](O[C@H]2O[C@H](CN)[C@@H](O)[C@H](O)[C@H]2O)[C@H](O)[C@H]1O[C@H]1O[C@H](CO)[C@@H](O)[C@H](N)[C@H]1O [Amikacin, reference compound] |  |  |  | MIC50 ([1]; control compound): 0.09 µg/mL (≈ 0.154 µM); MIC90 ([1]; control compound, read-out: Avg MIC90): 0.12 µg/mL (≈ 0.205 µM)
6 | CCCc1cc(=O)oc2c3c(c4c(c12)OC(C)(C)C=C4)OC(CNS(=O)(=O)c1ccc(OC)cc1)CC3=O (stereo not shown) |  |  | 108 to 109 °C | 
7 | CCOC1c2c3c(c4oc(=O)cc(CC)c4c2OCC1C)C(=O)CC(C)O3 (stereo not shown) [Example 94, 8-ethyoxyl-7,10-dimethyl-4-ethyl-7,8,10,11-tetrahydro-6H-benzo[2,3-f;2′,3′-h]-tripyranyl-2,12-dione] | 10 (≈ 26.9 µM) | 16.7 (≈ 44.8 µM) | 174 to 176 °C | 
8 | CCCCc1cc(=O)oc2c3c(c4c(c12)OC(CCCC)C=C4)OC(C)CC3=O (stereo not shown) [Example 38] | 10.4 (≈ 26.3 µM) | 14.4 (≈ 36.4 µM) | 146 to 148 °C | 
9 | CC1CC(=O)c2c(c3c(c4c(CN5CCNCC5)cc(=O)oc24)OC(C)(C)C=C3)O1 (stereo not shown) [Example 6, 6,6,10-trimethyl-4-piperazidinylmethylene-10,11-dihydro-6H-benzo[2,3-f:2′,3′-h]-tripyranyl-2,12-dione] | 52.4 (≈ 128 µM) | > 100 | 156 to 158 °C | 
10 | CCCc1cc(=O)oc2c3c(c4c(c12)OCC(C)C4OCC)OC(C)CC3=O (stereo not shown) [Example 95, 8-ethyoxyl-7,10-dimethyl-4-n-propyl-7,8,10,11-tetrahydro-6H-benzo[2,3-f;2′,3‘-h’ ]-trip yranyl-2,12-dione] | 20.1 (≈ 52 µM) | 34.5 (≈ 89.2 µM) | 198 to 201 °C | 
11 | CCCc1cc(=O)oc2c3c(c4c(c12)OC(C)(C)C=C4)OC(CN=[N+]=[N-])CC3=O (stereo not shown) [Example 58] | 34.5 (≈ 87.2 µM) | 54.9 (≈ 139 µM) | 116 to 117 °C | 
12 | CCCc1c(Cl)c(=O)oc2c3c(cc(O)c12)OC(C)CC3=O (stereo not shown) [Example 5a-20, benzo[1,2-b:3,4-b′]-dipyranyl-5-hydroxyl-8-methyl-3-chloro-4-n-propyl-2,10-dione] | 26.9 (≈ 83.5 µM) | 42 (≈ 130 µM) |  | 
13 | CCCc1cc(=O)oc2c3c(c4c(c12)OC(C)(C)C=C4)OC(CNS(=O)(=O)c1ccc(F)cc1)CC3=O (stereo not shown) |  |  | 129 to 131 °C | 
14 | CCCc1cc(=O)oc2c3c(cc(OS(=O)(=O)c4ccc(C)cc4)c12)OC(C)CC3=O (stereo not shown) [Example 5a-101, 5-(p-tolyl)sulfonyloxy-8-methyl-4-n-propyl-2H-benzo[2,3-f]dipyranyl-2,10-dione] | 4.2 (≈ 9.49 µM) | 6.66 (≈ 15.1 µM) |  | MIC90 [1, 2]: < 10 µg/mL
15 | CC1CC(=O)c2c(c3c(c4c(-c5ccc(N)cc5)cc(=O)oc24)OC(C)(C)C=C3)O1 (stereo not shown) [Example 23, 6,6,10-trimethyl-4-p-aminophenyl-2H,6H,12H-benzo[1,2-b:3,4-b′:5,6-b″]-tripyranyl-2,12-dione] | 24.2 (≈ 60 µM) | 27.6 (≈ 68.4 µM) | 149 to 151 °C | 
16 | CCCc1cc(=O)oc2c3c(c4c(c12)OCC(C)=C4)OC(C)CC3=O (stereo not shown) |  |  | 127 to 128 °C | 
17 | CCCc1cc(=O)oc2c3c(cc(O)c12)OC(c1ccccc1)CC3=O (stereo not shown) [Example 5a-16, benzo[1,2-b:3,4-b′]-dipyranyl-5-hydroxyl-8-phenyl-2,10-dione] | 22.5 (≈ 64.2 µM) | 25.1 (≈ 71.7 µM) |  | 
18 | CCCc1cc(=O)oc2c3c(cc(O)c12)OC(CCC)CC3=O (stereo not shown) [Example 5a-14, benzo[1,2-b:3,4-b′]-dipyranyl-5-hydroxyl-4,8-di-n-propyl-2,10-dione] | 60.2 (≈ 190 µM) | 85.8 (≈ 271 µM) |  | 
19 | CCCc1cc(=S)oc2c3c(c4c(c12)OC(C)(C)C=C4)OC(C)CC3=O (stereo not shown) |  |  | 139 to 141 °C | 
20 | CC1CC(=O)c2c(c3c(c4c(CCl)cc(=O)oc24)OC(C)(C)C=C3)O1 (stereo not shown) |  |  | 132 to 134 °C | 
21 | CCCCc1cc(=O)oc2cc(O)cc(O)c12 [Example 6-36, 4-n-butyl-5,7-dihydroxy-coumarin] | 11.3 (≈ 48.4 µM) | 14.4 (≈ 61.6 µM) |  | 
22 | CCCc1cc(=O)oc2c(-c3cccn3Cc3ccco3)c(O)c3c(c12)OC(C)(C)C=C3 |  |  | 157 to 159 °C | 
23 | CCCc1cc(=O)oc2c3c(c4c(c12)OC(C)(C)C=C4)OC(CN)CC3=O (stereo not shown) |  |  | > 220 °C (dec.) | 
24 | O=c1cc(CCC(F)(F)F)c2c(O)cc(O)cc2o1 [Example 6-71, 4-(3,3′,3″-trifluoro)-n-propyl-5,7-dihydroxy-coumarin] | 2.53 (≈ 9.21 µM) | 4.06 (≈ 14.8 µM) |  | MIC90 [1, 2]: < 10 µg/mL
25 | Cc1cc(=O)oc2cc3c(c(O)c12)C(=O)CC(C)O3 (stereo not shown) [Example 5b-1, benzo[1,2-b:3,4-b′]-dipyranyl-5-hydroxyl-4,8-dimethyl-2,6-dione] | 43.1 (≈ 165 µM) | > 100 |  | 

Row | Compound | IC50 ([1]; MABA, H37Rv) [µg/mL] | MIC90 ([1]; MABA, H37Rv, read-out: MIC90) [µg/mL] | melting point | further results
26 | CCCc1cc(=O)oc2c3c(c4c(c12)OC(C)(C)C=C4)OC(=O)CC3 |  |  | 132 to 135 °C | 
27 | CCCc1cc(=O)oc2cc3c(c(O)c12)C(=O)CC(C)O3 (stereo not shown) [Example 5b-11, benzo[1,2-b:3,4-b′]-dipyranyl-5-hydroxyl-4-n-propyl-8-methyl-2,6-dione] | 95.3 (≈ 330 µM) | > 100 |  | 
28 | CCCCC1C=Cc2c3c(c4oc(=O)cc(CCC)c4c2O1)C(=O)CC(C)O3 (stereo not shown) |  |  | 138 to 139 °C | 
29 | CCCc1cc(=O)oc2c(-c3cccn3C(C)C)c(O)c3c(c12)OC(C)(C)C=C3 |  |  | 161 to 162 °C | 
30 | CCCc1cc(=O)oc2cc3c(c(O)c12)C(=O)CC(CCC)O3 (stereo not shown) [Example 5b-14, benzo[1,2-b:3,4-b′]-dipyranyl-5-hydroxyl-4,8-di-n-propyl-2,6-dione] | 6.59 (≈ 20.8 µM) | > 100 |  | 
31 | CCCc1cc(=O)oc2c3c(cc(O)c12)O[C@@H]1CCCC[C@@H]1C3=O [Example 5a-19, benzo[1,2-b:3,4-b′]-dipyranyl-5-hydroxyl-8,9-cis-cyclohexyl-2,10-dione] | 83.1 (≈ 253 µM) | > 100 |  | 
32 | CCCc1cc(=O)oc2c1c(O)cc1occc(=O)c12 [Example 5a-13, 5-hydroxyl-4-n-propyl-benzo[2,3-f]-pyranyl-2,10-dione] | 46.7 (≈ 172 µM) | 53.4 (≈ 196 µM) |  | 
33 | C/C=C/C1C=Cc2c3c(c4oc(=O)cc(CCC(F)(F)F)c4c2O1)C(=O)CC(C)O3 (stereo not shown) |  |  | 147 to 149 °C | 
34 | CCCc1cc(=O)oc2c3c(c4c(c12)OC(C)(C)C=C4)OC(CN1CCCC1)CC3=O (stereo not shown) |  |  | 148 to 149 °C | 
35 | CCCc1c(Cl)c(=O)oc2c3c(c4c(c12)OC(CCC)C=C4)OC(C)CC3=O (stereo not shown) |  |  | 140 to 142 °C | 
36 | Cc1c(Cc2ccccc2)c(=O)oc2c3c(c4c(c12)OC(C)(C)C=C4)OC(C)CC3=O (stereo not shown) [Example 4] | 7.52 (≈ 18 µM) | > 100 |  | 
37 | CC1CC(=O)c2c(c3c(c4c(-c5ccccc5)cc(=O)oc24)OC(C)(C)C=C3)O1 (stereo not shown) [Example 21] | 16.6 (≈ 42.8 µM) | > 100 |  | 
38 | CC1CC(=O)c2c(cc(O)c3c4c(c(=O)oc23)CCCC4)O1 (stereo not shown) [Example 5a-27, benzo[1,2-b:3,4-b′]-dipyranyl-5-hydroxyl-8-methyl-3,4-cyclohexyl-2,0-dione] | 94.3 (≈ 314 µM) | > 100 |  | 
39 | CCCCc1cc(=O)oc2c3c(c4c(c12)OC(C)(C)C=C4)OC(C)CC3=O (stereo not shown) [Example 36] | 24.2 (≈ 65.8 µM) | 36.6 (≈ 99.3 µM) |  | 
40 | Cc1c(Cl)c(=O)oc2c3c(c4c(c12)OC(C)(C)C=C4)OC(C)CC3=O (stereo not shown) [Example 3] | 33.4 (≈ 92.5 µM) | > 100 |  | 
41 | CCCc1cc(=O)oc2cc3c(c(O)c12)C(=O)CC(c1ccccc1)O3 (stereo not shown) [Example 5b-16, benzo[1,2-b:3,4-b′]-dipyranyl-5-hydroxyl-8-phenyl-2,6-dione] | 4.31 (≈ 12.3 µM) | 5.41 (≈ 15.4 µM) |  | MIC90 [1, 2]: < 10 µg/mL
42 | CCCCCC1CC(=O)c2c(cc(O)c3c(CCC)cc(=O)oc23)O1 (stereo not shown) [Example 5a-15] | 66 (≈ 192 µM) | > 100 |  | 
43 | CCCc1c(F)c(=O)oc2c3c(cc(O)c12)OC(C)CC3=O (stereo not shown) [Example 5a-31, benzo[1,2-b:3,4-b′]-dipyranyl-5-hydroxyl-8-methyl-3-fluoro-4-n-propyl-2,10-dione] | 17 (≈ 55.5 µM) | 23.5 (≈ 76.6 µM) |  | 
44 | CCCCC1C=Cc2c3c(c4oc(=O)c(F)c(CCC)c4c2O1)C(=O)CC(C)O3 (stereo not shown) |  |  | 119 to 121 °C | 
45 | CC1CC(=O)c2c(cc3oc(=O)cc(-c4ccccc4)c3c2O)O1 (stereo not shown) [Example 5b-21, benzo[1,2-b:5,4-b′]-dipyranyl-5-hydroxyl-8-methyl-4-phenyl-2,6-dione] | 14.9 (≈ 46.1 µM) | 21.3 (≈ 66.1 µM) |  | 
46 | Cc1c(Cl)c(=O)oc2cc3c(c(O)c12)C(=O)CC(C)O3 (stereo not shown) [Example 5b-3, benzo[1,2-b:3,4-b′]-dipyranyl-5-hydroxyl-4,8-dimethyl-3-chloro-2,6-dione] | 90.5 (≈ 307 µM) | > 100 |  | 
47 | CCCc1cc(=O)oc2c3c(c4c(c12)OC(C)(C)C=C4)OC(CN1CCCCC1)CC3=O (stereo not shown) |  |  | 154 to 155 °C | 
48 | CCc1cc(=O)oc2c3c(c4c(c12)OCC(C)=C4)OC(C)CC3=O (stereo not shown) |  |  | 121 to 123 °C | 
49 | CC1CC(=O)c2c(cc(O)c3c(CCC(F)(F)F)cc(=O)oc23)O1 (stereo not shown) [Example 5a-71, benzo[1,2-b:3,4-b′]-dipyranyl-5-hydroxyl-8-methyl-4-((3,3′,3″-trifluoro)-n-propyl)-2,10-dione] | 15.4 (≈ 45.1 µM) | 29.9 (≈ 87.4 µM) |  | 
